Measurements: patent US20260130395A1, “Water Dispersible Botanical Compositions” (Aquila Black Limited, priority 2021, published 2026)

Assay: Stability of cannabinoid compounds and Vitamin E components in Beverage 2 (AB Red) by LCMSMS
Type: physicochemical

In the case of `CCCCCc1cc2c(c(O)c1C(=O)O)[C@@H]1C=C(C)CC[C@H]1C(C)(C)O2` [D9 THCA, delta-9-tetrahydrocannabinolic acid], the “Stability of Plant-Derived Cannabinoid Compounds in AB Red” value (“Stability” for short) (stored at 8° C., 0 days) is reported as 1.35 µg/mL, the “Stability” value (stored at 8° C., 1 days) is reported as 1.34 µg/mL and the “Stability” value (stored at 8° C., 2 days) is reported as 1.34 µg/mL. The “Stability” value (stored at 8° C., 3 days) was 1.35 µg/mL, the “Stability” value (stored at 8° C., 5 days) was 1.36 µg/mL and the “Stability” value (stored at 8° C., 8 days) was 1.35 µg/mL. The “Stability” value (stored at 8° C., 9 days) was 1.36 µg/mL, the “Stability” value (stored at 8° C., 10 days) was 1.35 µg/mL and the “Stability” value (stored at 8° C., 11 days) was 1.35 µg/mL. The “Stability” value (stored at 8° C., 12 days) was 1.32 µg/mL, the “Stability” value (stored at 8° C., 15 days) was 1.33 µg/mL and the “Stability” value (stored at 8° C., 16 days) was 1.31 µg/mL. For the same compound, the “Stability” value (stored at 8° C., 17 days) was 1.34 µg/mL, the “Stability” value (stored at 8° C., 18 days) was 1.35 µg/mL and the “Stability” value (stored at 8° C., 19 days) was 1.32 µg/mL. For the same compound, the “Stability” value (stored at 8° C., 22 days) was 1.34 µg/mL, the “Stability” value (stored at 8° C., 23 days) was 1.33 µg/mL and the “Stability” value (stored at 8° C., 24 days) was 1.33 µg/mL. For the same compound, the “Stability” value (stored at 8° C., 25 days) was 1.34 µg/mL, the “Stability” value (stored at 8° C., 26 days) was 1.33 µg/mL and the “Stability” value (stored at 8° C., 29 days) was 1.35 µg/mL. The “Stability” value (stored at 8° C., 30 days) was 1.31 µg/mL, the “Stability” value (stored at 8° C., 60 days) was 1.32 µg/mL and the “Stability” value (stored at 8° C., 90 days) was 1.34 µg/mL. The “Stability” value (stored at 8° C., 120 days) was 1.30 µg/mL, the “Stability” value (stored at 8° C., 150 days) was 1.34 µg/mL and the “Stability” value (stored at 8° C., 180 days) was 1.30 µg/mL. For the same compound, the “Stability” value (stored at 8° C., 210 days) was 1.33 µg/mL, the “Stability” value (stored at 8° C., 240 days) was 1.32 µg/mL and the “Stability” value (stored at 8° C., 270 days) was 1.33 µg/mL. For the same compound, the “Stability” value (stored at 8° C., 300 days) was 1.30 µg/mL, the “Stability” value (stored at 8° C., 330 days) was 1.34 µg/mL and the “Stability” value (stored at 8° C., 360 days) was 1.31 µg/mL. The “Stability” value (stored at 8° C., 390 days) was 1.29 µg/mL, the “Stability” value (stored at 8° C., 420 days) was 1.29 µg/mL and the “Stability” value (stored at 8° C., 450 days) was 1.31 µg/mL. The “Stability” value (stored at 8° C., 480 days) was 1.28 µg/mL, the “Stability” value (stored at 8° C., 510 days) was 1.25 µg/mL and the “Stability” value (stored at 8° C., 540 days) was 1.26 µg/mL. For the same compound, the “Stability” value (stored at 8° C., 570 days) was 1.24 µg/mL, the “Stability” value (stored at 21-25° C., 0 days) was 1.35 µg/mL and the “Stability” value (stored at 21-25° C., 1 days) was 1.34 µg/mL. For the same compound, the “Stability” value (stored at 21-25° C., 2 days) was 1.30 µg/mL, the “Stability” value (stored at 21-25° C., 3 days) was 1.32 µg/mL and the “Stability” value (stored at 21-25° C., 5 days) was 1.36 µg/mL. For the same compound, the “Stability” value (stored at 21-25° C., 8 days) was 1.36 µg/mL, the “Stability” value (stored at 21-25° C., 9 days) was 1.35 µg/mL and the “Stability” value (stored at 21-25° C., 10 days) was 1.33 µg/mL. The “Stability” value (stored at 21-25° C., 11 days) was 1.33 µg/mL, the “Stability” value (stored at 21-25° C., 12 days) was 1.33 µg/mL and the “Stability” value (stored at 21-25° C., 15 days) was 1.30 µg/mL. The “Stability” value (stored at 21-25° C., 16 days) was 1.36 µg/mL, the “Stability” value (stored at 21-25° C., 17 days) was 1.35 µg/mL and the “Stability” value (stored at 21-25° C., 18 days) was 1.36 µg/mL. The “Stability” value (stored at 21-25° C., 19 days) was 1.31 µg/mL, the “Stability” value (stored at 21-25° C., 22 days) was 1.34 µg/mL and the “Stability” value (stored at 21-25° C., 23 days) was 1.36 µg/mL. The “Stability” value (stored at 21-25° C., 24 days) was 1.30 µg/mL, the “Stability” value (stored at 21-25° C., 25 days) was 1.35 µg/mL and the “Stability” value (stored at 21-25° C., 26 days) was 1.32 µg/mL. The “Stability” value (stored at 21-25° C., 29 days) was 1.33 µg/mL, the “Stability” value (stored at 21-25° C., 30 days) was 1.34 µg/mL and the “Stability” value (stored at 21-25° C., 60 days) was 1.28 µg/mL. For the same compound, the “Stability” value (stored at 21-25° C., 90 days) was 1.34 µg/mL, the “Stability” value (stored at 21-25° C., 120 days) was 1.34 µg/mL and the “Stability” value (stored at 21-25° C., 150 days) was 1.28 µg/mL. For the same compound, the “Stability” value (stored at 21-25° C., 180 days) was 1.30 µg/mL, the “Stability” value (stored at 21-25° C., 210 days) was 1.33 µg/mL and the “Stability” value (stored at 21-25° C., 240 days) was 1.31 µg/mL. The “Stability” value (stored at 21-25° C., 270 days) was 1.27 µg/mL, the “Stability” value (stored at 21-25° C., 300 days) was 1.27 µg/mL and the “Stability” value (stored at 21-25° C., 330 days) was 1.28 µg/mL. The “Stability” value (stored at 21-25° C., 360 days) was 1.29 µg/mL, the “Stability” value (stored at 21-25° C., 390 days) was 1.26 µg/mL and the “Stability” value (stored at 21-25° C., 420 days) was 1.26 µg/mL. The “Stability” value (stored at 21-25° C., 450 days) was 1.31 µg/mL, the “Stability” value (stored at 21-25° C., 480 days) was 1.29 µg/mL and the “Stability” value (stored at 21-25° C., 510 days) was 1.27 µg/mL. For the same compound, the “Stability” value (stored at 21-25° C., 540 days) was 1.29 µg/mL and the “Stability” value (stored at 21-25° C., 570 days) was 1.24 µg/mL.
